The values below come from patent publication US8455479B2, “Heterocyclic compounds” (Panacea Biotec Limited, priority 2008, dated 2013).

As a reminder, the IC50 is the point on the concentration scale where inhibition reaches its midpoint.

One assay addresses DPP-IV (UniProt P27487). Description: In-vitro DPP-IV assay (cleavage of pNA from Gly-Pro-pNA). Type of assay: biochemical, porcine kidney or human recombinant. To be noted: for IC50: DPP-IV; for % Inhibition: DPP-IV inhibition at 100 nM. The method, then:
Protocol for In-Vitro DPP-IV Assay
DPP-IV activity was determined by the rate of cleavage of p-nitro aniline (pNA) from synthetic substrate Glycine-Proline-pNA. The assay was conducted by adding 1 μg of porcine kidney or human recombinant DPP-IV enzyme (Sigma Aldrich, USA) in 100 μL of the assay buffer (100 mM Tris, pH 7.4, 140 mM NaCl, 10 mM KCl, 1% BSA) to 96 well Cellstar flat bottom microtitre plates (Greiner Bio-one, Germany). The reaction was initiated by adding 80 μl of 500 μM substrate Gly-Pro-pNA. The incubation was carried out in the kinetic mode at 30° C. for 30 min. Absorbance was measured using Synergy HT Biotek Multiplate reader at 410 nm. Test compounds and solvent controls were added as 10 μL additions. A standard curve of free p-nitro, aniline (pNA) was generated using 0-2000 μM pNA in the assay buffer. In addition DPP-IV activity was also determined by using Fluorogenic substrate (Gly-Pro-AMC) using human recombinant DPP-IV enzyme (Sigma Aldrich USA).
Test compounds dissolved in DMSO at 9-10 different concentrations were tested in triplicates along with the solvent control and blank samples. % age inhibition was calculated at each concentration with respect to the solvent control (no test compound added). IC50 values were calculated from 3 experiments using the Graph Pad Prism or Sigma Stat software.

The subject of a further assay is C57BL/6J mice. Description: Oral glucose tolerance test (OGTT) in C57BL/6J mice. The following applies: for ED50 (mg/kg p.o.): OGTT in C57BL/6J mice; for % Reduction in glucose excursion: OGTT in C57BL/6J mice at 3 mg/kg body weight, glucose 2 g/kg p.o., glucose AUC. Type of assay: in vivo. The protocol: Oral Glucose Tolerance Test (OGTT) in C57BL/6J Mice
The oral glucose tolerance test (OGTT) measures the body's ability to use glucose that is the body's main source of energy. OGTT serves as a primary in-vivo screen to select efficacious test compounds for their antidiabetic activity. Compounds were formulated in 0.25% CMC with a drop of tween 80 (optional). C57BL/6J male mice (8-9 weeks) were fasted overnight and randomized into different groups (n=6) on body weigh basis. At T−15 min blood was collected from each group for glucose estimation. At T0 compounds or vehicle were administered with simultaneous administration of glucose (2 g/kg p.o.) to each group. RO water was administered to no glucose control group. Blood samples were collected from retro-orbital plexus at 15, 30, 60 and 120 min post dosing for glucose estimation. The AUC for glucose was calculated to get the reduction in glucose excursion.

For `N[C@@H](CC(=O)N1Cc2ccccc2-n2ccnc2C1)Cc1cc(F)c(F)cc1F` [Compound 95], on DPP-IV, the IC50 fell in the range of 1 to 100 nM and the “% Inhibition” value is recorded as “Y (Y: 50-100% DPP-IV inhibition at 100 nM)”.

With `N[C@@H](CC(=O)N1CC(=O)Nc2cc(F)ccc2C1)Cc1cc(F)c(F)cc1F` [Compound 3], on DPP-IV, the IC50 lay within 1 to 100 nM and the “% Inhibition” value is on record as “Y (Y: 50-100% DPP-IV inhibition at 100 nM)”. In the assay with C57BL/6J mice, the “ED50 (mg/kg p.o.)” value worked out at 0.7 mg/kg p.o and the “% Reduction in glucose excursion” value is 37%.

On to `N[C@@H](CC(=O)N1CC(=O)Nc2ccccc2C1)Cc1cc(F)c(F)cc1F` [Compound 2], for which, at DPP-IV, the concentration for half-maximal inhibition (IC50) lay within 1 to 100 nM and the “% Inhibition” value is reported as “Y (Y: 50-100% DPP-IV inhibition at 100 nM)”. In the assay with C57BL/6J mice, the “ED50 (mg/kg p.o.)” value is 0.4 mg/kg p.o and the “% Reduction in glucose excursion” value is recorded as 51%.

Consider `N[C@@H](CC(=O)N1CC(=O)N(CC(=O)NC2CC2)c2cc(F)ccc2C1)Cc1cc(F)c(F)cc1F` [Compound 38], for which, on DPP-IV, the half-maximal inhibitory concentration (IC50) lay in the range of 1 to 100 nM and the “% Inhibition” value is given as “Y (Y: 50-100% DPP-IV inhibition at 100 nM)”.

As to `CN(C(=O)CN1C(=O)CN(C(=O)C[C@H](N)Cc2cc(F)c(F)cc2F)Cc2ccccc21)C1CC1` [Compound 39], on DPP-IV, the “% Inhibition” value is reported as “Y (Y: 50-100% DPP-IV inhibition at 100 nM)”.
